Reference: patent US20100285146A1, “PEPTIDES AND METHODS FOR THE TREATMENT OF SYSTEMIC LUPUS ERYTHEMATOSUS” (priority 2007, published 2010)
Values belong to the molecule of their own block, whether it stands above or below them. No end group written: not given here.

Assays:
[1] = tested on: C72 murine anti-DNA antibody; assay: Anti-peptide direct binding ELISA with C72; conditions: for C72 Binding: direct binding ELISA, footnote: O.D. after one (1) hour; for binding of C72 murine anti-DNA antibody to laminin peptides (FIG. 1): ELISA, C72 conditioned medium in various dilutions
Method: (§1) Wells were coated with 10 μg/ml of the peptides, blocked with 1% BSA (bovine serum albumin) in PBS (pH 7.4), reacted with appropriately diluted plasma or monoclonal antibodies, incubated with anti-human or anti-mouse immunoglobulin enzyme conjugated to alkaline phosphatase and detected by addition of substrate (Sigma 100 Phosphatase Substrate Tablets) and color development using an Organon Teknika Microwell System spectrometer at wavelength of 405 nm.
The interaction of the C72 murine anti-DNA antibody with laminin peptides was analyzed by ELISA as described above. The C72 conditioned medium was diluted in PBS in various dilutions.
(§2) The peptides of the present invention were tested for their ability to bind directly with C72 murine anti-DNA antibodies and B3 human anti-DNA antibodies according to the method described hereinabove.

[2] = tested on: B3 human anti-DNA antibodies; assay: Anti-peptide direct binding ELISA with B3; conditions: direct binding ELISA; footnote: O.D. after two (2) hours
Method: as §1
The human monoclonal anti-DNA antibodies DIL 6 and B3 were derived from lupus patients by the hybridoma technique. […] In FIGS. 3 and 4, the peptides are referred to as denoted above or as follows; AS30 is R27, AS19 is R35, AS35 is R26, AS17 is R28 and AS6 is R18.
as §2

C72 anti-DNA antibody = assay: Competitive inhibition of C72 binding to R38 (5100); parameters: species or system murine; conditions: concentration of competitive inhibitor giving 50% inhibition, ELISA
Excerpt: A competitive inhibition study compared how each of the peptides competes with R38 (5100) for binding to the C72 anti-DNA antibody. Conducted according to the methods described hereinabove, the results of the study are disclosed in Table 4 below and are further elucidated by reference to FIG. 10.

[3] = tested on: C72 murine anti-DNA antibody; assay: Competitive inhibition of the binding of C72 to 5200; conditions: after incubation of C72 with the inhibiting agent
Method: The binding of C72 to 5200 was tested before and after incubation with 5200, R38, R18, Heparin, DNA and DNase. […] The percent inhibition is the percent reduction of the O.D. after incubation with the inhibiting agent.

[4] = tested on: urine antibodies of lupus patients; assay: Urine anti-peptide antibody ELISA in patients; assay type: binding, human
[5] = tested on: MRL/1pr/1pr urine antibodies; assay: Binding of murine urinary immunoglobulins, MRL/1pr/1pr urine; parameters: species or system mice; conditions: pooled urine of MRL/1pr/1pr mice
Method: as §1
(§3) Thus, pooled urine from at least 5 mice (either MRL/1pr/1pr or control mice, e.g. BALB/c) was added to wells coated with R38′ (5200), R18 or DNA as described above and bound 5200 assayed by ELISA.
(§4) Each group is comprised of pooled urine.

[6] = tested on: BALB/c urinary immunoglobulins; assay: Binding of murine urinary immunoglobulins, BALB/c control urine; conditions: pooled urine of BALB/c control mice
Method: as §1, §3, §4

[7] = target: C72 murine anti-DNA antibody; assay: competitive inhibition ELISA: peptide in solution against binding of C72 to coated 5100

Molecule: VRLDLNITLEFR [Peptide 5102]
C72 Binding [1]: 0.1 O.D.
B3 Binding [2]: 0.02 O.D.
50% Inhibition of C72 binding to mouse R38 (5100) (C72 anti-DNA antibody): 30 µg/mL

Molecule: KEGYKVRLDLNITLEF [Peptide 5101]
C72 Binding [1]: 1.11 O.D.
B3 Binding [2]: 0.1 O.D.
50% Inhibition of C72 binding to mouse R38 (5100) (C72 anti-DNA antibody): 5 µg/mL

Molecule: LDLNITEFRTTSK [Peptide 5103]
C72 Binding [1]: 0.03 O.D.
B3 Binding [2]: 0.02 O.D.

Molecule: DNA
inhibition of the binding of C72 to 5200 (FIG. 2) [3]: inhibition
Binding of murine urinary immunoglobulins to antigen [5]: U.D.
Binding of murine urinary immunoglobulins to antigen [6]: U.D.

B1: R38 peptide (5100), mouse R38 (peptide)
peptide: KEGYKVRLDLNITLEFRTTSK
IC50 [7]: 10 µg/mL

B2: 5106 peptide (charge subst. to neg. at 5100 a.a. 7) (peptide)
peptide: KEGYKVELDLNITLEFRTTSK
IC50 [7]: 2.5 µg/mL

B3: 5102 peptide (Res. 6-17 of 5100) (peptide)
peptide: VRLDLNITLEFR
IC50 [7]: 30 µg/mL

B4: 5101 peptide (Res. 1-16 of 5100) (peptide)
peptide: KEGYKVRLDLNITLEF
IC50 [7]: 5 µg/mL

B5: 5200 peptide (R38′), mouse R38 analog (peptide)
peptide: KEGYKVRLDLNTTLEFRTTSK
IC50 [7]: 10 µg/mL

B6: 5109 peptide (Ala subst. of 5100 a.a. 9) (peptide)
peptide: KEGYKVRLALNITLEFRTTSK
IC50 [7]: 0.7 µg/mL

B7: 5300 peptide, human R38 (peptide)
peptide: KEGYKVQSDVNITLEFRTSSQ
IC50 [7]: 85 µg/mL

B8: 5108 peptide (Ala subst. of 5100 at all negative a.a.) (peptide)
peptide: KAGYKVRLALNITLAFRTTSK
IC50 [7]: 2 µg/mL

B9: 5107 peptide (charge subst. to neg. at 5100 a.a. 17) (peptide)
peptide: KEGYKVRLDLNITLEFETTSK
IC50 [7]: 85 µg/mL

B10: 5110 peptide (Ala subst. of 5100 a.a. 15) (peptide)
peptide: KEGYKVRLDLNITLAFRTTSK
IC50 [7]: 0.7 µg/mL

The next lines start with results.

C72 Binding [1]: 2.72 O.D.
B3 Binding [2]: 1.94 O.D.
50% Inhibition of C72 binding to mouse R38 (5100) (C72 anti-DNA antibody): 0.7 µg/mL
Molecule: KEGYKVRLALNITLEFRTTSK [Peptide 5109]

binding of C72 murine anti-DNA antibody to laminin peptides (FIG. 1) [1]: binding
C72 Binding [1]: 1.8 O.D.
Molecule: KATPMLKMRTSFHGCIK [Peptide R37, laminin derived peptide, residues 2615-2631]

C72 Binding [1]: 0.01 O.D.
Molecule: DGKWHTVKTEYIKRKAF [Peptide R28, laminin derived peptide, residues 2779-2795]

inhibition of the binding of C72 to 5200 (FIG. 2) [3]: inhibition
Molecule: heparin

C72 Binding [1]: 1.9 O.D.
B3 Binding [2]: 0.16 O.D.
50% Inhibition of C72 binding to mouse R38 (5100) (C72 anti-DNA antibody): 2.5 µg/mL
Molecule: KEGYKVELDLNITLEFRTTSK [Peptide 5106]

C72 Binding [1]: 0.06 O.D.
B3 Binding [2]: 0.02 O.D.
Molecule: AEGYAVALDLNITLEFATTSA [Peptide 5104]

C72 Binding [1]: 0.01 O.D.
B3 Binding [2]: 0.01 O.D.
Molecule: VQSDVNITLEFR [Peptide 5111]

C72 Binding [1]: 2.75 O.D.
B3 Binding [2]: 1.93 O.D.
50% Inhibition of C72 binding to mouse R38 (5100) (C72 anti-DNA antibody): 2 µg/mL
Molecule: KAGYKVRLALNITLAFRTTSK [Peptide 5108]
Urine anti-5108 O.D. (Mean + S.E.) ([4]; Example 9, renal disease absent, 2 samples): 0.064 ± 0.05 O.D.
Urine anti-5108 O.D. (Mean + S.E.) ([4]; Example 9, renal disease present, 22 samples): 0.672 ± 0.1 O.D.

C72 Binding [1]: 0.03 O.D.
B3 Binding [2]: 0.03 O.D.
50% Inhibition of C72 binding to mouse R38 (5100) (C72 anti-DNA antibody): 85 µg/mL
Molecule: KEGYKVQSDLNITLEFRTSSQ [Peptide 5300]

C72 Binding [1]: 0.05 O.D.
B3 Binding [2]: 0.01 O.D.
50% Inhibition of C72 binding to mouse R38 (5100) (C72 anti-DNA antibody): 85 µg/mL
Molecule: CC[C@H](C)[C@H](NC(=O)[C@H](CC(N)=O)NC(=O)[C@H](CC(C)C)NC(=O)[C@H](CC(=O)O)NC(=O)[C@H](CC(C)C)NC(=O)[C@H](CCCNC(=N)N)NC(=O)[C@@H](NC(=O)[C@H](CCCCN)NC(=O)[C@H](Cc1ccc(O)cc1)NC(=O)CNC(=O)[C@H](CCC(=O)O)NC(=O)[C@@H](N)CCCCN)C(C)C)C(=O)N[C@H](C(=O)N[C@@H](CC(C)C)C(=O)N[C@@H](CCC(=O)O)C(=O)N[C@@H](Cc1ccccc1)C(=O)N[C@@H](CCC(=O)O)C(=O)N[C@H](C(=O)N[C@H](C(=O)N[C@@H](CO)C(=O)N[C@@H](CCCCN)C(=O)O)[C@@H](C)O)[C@@H](C)O)[C@@H](C)O [Peptide 5107]

C72 Binding [1]: 0.01 O.D.
Binding of murine urinary immunoglobulins to antigen [5]: U.D.
Binding of murine urinary immunoglobulins to antigen [6]: U.D.
Molecule: RPVRHAQCRVCDGNSTNPRERH [Peptide R18, peptide from the N-terminal of mouse laminin alpha chain, residues 42-63, reference compound]

C72 Binding [1]: 2.8 O.D.
B3 Binding [2]: 1.83 O.D.
50% Inhibition of C72 binding to mouse R38 (5100) (C72 anti-DNA antibody): 0.7 µg/mL
Molecule: KEGYKVRLDLNITLAFRTTSK [Peptide 5110]

binding of C72 murine anti-DNA antibody to laminin peptides (FIG. 1) [1]: binding
C72 Binding [1]: 0.75 O.D.
Molecule: KQNCLSSRASFRGCVRNLRLSR [Peptide R30, laminin derived peptide, residues 3011-3032]

C72 Binding [1]: 0.07 O.D.
B3 Binding [2]: 0.02 O.D.
Molecule: KEGYKVELDLNITLEFETTSK [Peptide 5105]
